Experiment: solvent given as SMILES

## C=CC=C
In C1CCC2CCCCC2C1
  solvation free energy, 298 K: -2.17 kcal/mol
In C1COCCO1
  solvation free energy, 298 K: -2.03 kcal/mol
In C=Cc1ccccc1
  solvation free energy, 298 K: -2.36 kcal/mol
In CC1COC(=O)O1
  solvation free energy, 298 K: -1.97 kcal/mol
In CC#N
  solvation free energy, 298 K: -2.15 kcal/mol
In CC(=O)N(C)C
  solvation free energy, 298 K: -2.56 kcal/mol
In CC(C)(C)O
  solvation free energy, 298 K: -2.07 kcal/mol
In CC(C)=O
  solvation free energy, 298 K: -2.74 kcal/mol
In CC(C)CCO
  solvation free energy, 298 K: -2.09 kcal/mol
In CC(C)CO
  solvation free energy, 298 K: -2.06 kcal/mol
In CC(C)O
  solvation free energy, 298 K: -2.09 kcal/mol
In CCC(C)(C)O
  solvation free energy, 298 K: -2.16 kcal/mol
In CCC(C)CO
  solvation free energy, 298 K: -2.06 kcal/mol
In CCC(C)O
  solvation free energy, 298 K: -2.07 kcal/mol
In CCC(O)CC
  solvation free energy, 298 K: -2.09 kcal/mol
In CCCC(C)O
  solvation free energy, 298 K: -2.07 kcal/mol
In CCCCCCC
  solvation free energy, 298 K: -2.67 kcal/mol
In CCCCCCCCCCCCCCCC
  solvation free energy, 298 K: -2.1 kcal/mol
In CCCCCO
  solvation free energy, 298 K: -2.11 kcal/mol
In CCCCO
  solvation free energy, 298 K: -2.11 kcal/mol
In CCCO
  solvation free energy, 298 K: -2.16 kcal/mol
In CCOC(C)=O
  solvation free energy, 298 K: -2.84 kcal/mol
In CCOCC
  solvation free energy, 298 K: -2.72 kcal/mol
In CN1CCCC1=O
  solvation free energy, 298 K: -2.36 kcal/mol
In CN(C)C=O
  solvation free energy, 298 K: -2.29 kcal/mol
In CN(C)P(=O)(N(C)C)N(C)C
  solvation free energy, 298 K: -2.46 kcal/mol
In CO
  solvation free energy, 298 K: -2.14 kcal/mol
In COC(C)=O
  solvation free energy, 298 K: -2.26 kcal/mol
In COCCOCCOCCOC
  solvation free energy, 298 K: -2.05 kcal/mol
In CS(C)=O
  solvation free energy, 298 K: -1.8 kcal/mol
In Cc1ccc(C)cc1
  solvation free energy, 298 K: -2.45 kcal/mol
In Cc1cccc(C)c1
  solvation free energy, 298 K: -2.48 kcal/mol
In Cc1ccccc1C
  solvation free energy, 298 K: -2.46 kcal/mol
In ClCCl
  solvation free energy, 298 K: -2.83 kcal/mol
In Nc1ccccc1
  solvation free energy, 298 K: -2.06 kcal/mol
In O
  solvation free energy, 298 K: 0.6 kcal/mol
In OCCCOCCCO
  solvation free energy, 298 K: -1.73 kcal/mol
In OCCO
  solvation free energy, 298 K: -1.35 kcal/mol
In OCc1ccccc1
  solvation free energy, 298 K: -1.95 kcal/mol

## CC1=CCCC(C)=CCC(C)(C)C=CC1
In O
  solvation free energy, 298 K: 0.05 kcal/mol

## Clc1ccc(Cl)cc1
In CCCCCC
  solvation free energy, 298 K: -6.06 kcal/mol
In CCCCCCC
  solvation free energy, 298 K: -5.81 kcal/mol
In CCCCCCCCC=CCCCCCCCC(=O)OCC(COC(=O)CCCCCCCC=CCCCCCCCC)OC(=O)CCCCCCCC=CCCCCCCCC
  solvation free energy, 298 K: -6.7 kcal/mol
In O
  solvation free energy, 298 K: -1.01 kcal/mol

## CCCCCCCCC=CCCCCCCCC(=O)OC
In O
  solvation free energy, 298 K: -2.13 kcal/mol

## O=CN1CCOCC1
In O
  solvation free energy, 298 K: -9.41 kcal/mol

## CCCC(=O)CC(=O)CC
In O
  solvation free energy, 298 K: -4.35 kcal/mol
